{"source": "patent US20140303092A1", "about": "(CHIMERIX, INC., priority 2011, published 2014)", "test_system": "CMV", "assay": "Study HDP-CDV-201: prevention or control of CMV infection in R+ HSCT recipients (efficacy)", "assay_type": "in vivo, human (adult allogeneic HSCT recipients)", "details": "for Difference (HDP-CDV minus placebo) in rate of CMV DNAemia ≧1,000 copies/mL / Rate of CMV DNAemia ≧1,000 copies/mL during the treatment period: CMV modified strata: positive; for Discontinuation: Emergence of CMV disease / Discontinuation: Initiation of alternate CMV therapy: active treatment period", "experimental": "The clinical study of the current invention (HDP-CDV-201) was a 9-11 week randomized, placebo-controlled, double-blind, dose-escalation study (40 mg weekly [QW], 100 mg QW, 200 mg QW, 200 mg twice-weekly [BIW], and 100 mg BIW) of HDP-CDV for the prevention of CMV infection post-HCT. Treatment was initiated at the time of engraftment and continued until Week 13 post-HCT. HDP-CDV, at various doses, was active and well tolerated in the prevention CMV infection or disease.\nClinical Studies of HDP-CDV were performed and described in detail in the following Examples. For example, HDP-CDV-201 is a placebo-controlled, dose-escalating trial in HSCT CMV (R+) recipients, evaluating the ability of HDP-CDV to prevent or control CMV infection was carried out. Five cohorts were established in which participants or subjects received either placebo or the HDP-CDV orally, in doses ranging from 40 mg weekly (QW) to 200 mg twice weekly (BIW). Subjects who were post-HSCT were enrolled at the time of engraftment and randomized to HDP-CDV or placebo (3 to 1 ratio) and received blinded therapy until approximately 100 day post-transplantation. HDP-CDV doses were 40 mg QW, 100 mg QW, 200 mg QW, 200 mg BIW and 100 mg BIW. Escalation to the next dose was decided by the data monitoring committee after review of the safety data from the previous Cohort. Subjects who developed CMV disease or CMV infection requiring pre-emptive therapy with local standard of care were discontinued from blinded therapy and followed for 4 weeks. Subjects who completed treatment with blinded therapy were followed for 8 weeks post-therapy.\nThe primary endpoint was defined as the incidence of CMV disease at any time during treatment or CMV DNAemia≧200 copies/mL at the end of treatment. All subjects who received at least one dose of drug/placebo and had at least one efficacy evaluation post baseline were included in the primary analysis, regardless of their CMV DNAemia status (negative or positive) at baseline (mITT population). Results for the pooled HDP-CDV Cohorts and for each Cohort separately were analyzed versus that for pooled placebo.\nThe primary efficacy measure for this study was treatment failure, defined as the occurrence of CMV infection, defined as CMV DNAemia>200 copies/mL at the End of Treatment or diagnosis of CMV disease at any time during the treatment period. For the analysis, the following definitions apply:\nFor subjects who completed the treatment phase of the study, the End of Treatment was defined as the latest assessment from date of the last dose of study drug and up to 7 days for QW dosing, or the date of the last dose of study drug and up to 4 days for BIW dosing. For subjects who discontinued during the treatment phase of the study, the End of Treatment was defined as the date of the last dose of study drug.\nThe time to event was defined as the period between FDD and date of first occurrence of the event of interest (inclusive). The events included onset of CMV DNAemia, onset of CMV disease, and discontinuation because of excluded anti-CMV medications. Time to event/onset was derived as (the event/onset date—FDD)+1.\nAs detailed in the Statistical Analysis Plan, a modified CMV stratum was defined prior to conducting the statistical analysis based upon polymerase chain reaction (PCR) results from the central laboratory. If any positive CMV DNA value in plasma was collected before the first dose of study drug (including Screening, Pre-dose, (combined Screening/Pre-dose), CMV for stratification, and FDD), then the subject was placed into the modified CMV positive (≧100 copies/mL) stratum, otherwise the subject was in the modified CMV negative stratum. […]", "key": {"[1]": {"details": "40 mg QW, CMV modified strata: negative"}, "[2]": {"details": "40 mg QW, modified CMV negative stratum"}, "[3]": {"details": "40 mg QW, treatment period, CMV DNA negative at baseline"}, "[4]": {"details": "40 mg QW, whole study period, CMV DNA negative at baseline"}, "[5]": {"details": "100 mg BIW, CMV modified strata: negative"}}, "note": "Several values for one entry are separate records, joined by “and”; a condition that tells them apart may be missing. Equal values may be shown once."}
{"compound": "CCCCCCCCCCCCCCCCOCCCOP(=O)(O)COC(CO)Cn1ccc(N)nc1=O", "note": "(stereo not drawn) [HDP-CDV]", "values": [{"measurement": "anti-CMV activity (in words)", "setting": "40 mg QW", "result": "inactive"}, {"measurement": "Difference (HDP-CDV minus placebo) in infection rate", "setting": "[1]", "result": 9.1, "unit": "%"}, {"measurement": "Difference (HDP-CDV minus placebo) in rate of CMV DNAemia ≧1,000 copies/ml", "setting": "[1]", "result": "−9.7", "unit": "%"}, {"measurement": "Rate of CMV DNAemia ≧1,000 copies/ml during the treatment period", "setting": "[1]", "result": 22.2, "unit": "%"}, {"measurement": "Rate of CMV Disease or End of Treatment CMV Infection", "setting": "[1]", "result": 38.9, "unit": "%"}, {"measurement": "Difference (HDP-CDV minus placebo) in rate of CMV DNAemia ≧1,000 copies/mL", "setting": "40 mg QW", "result": 2.4, "unit": "%"}, {"measurement": "Rate of CMV DNAemia ≧1,000 copies/mL during the treatment period", "setting": "40 mg QW", "result": 85.7, "unit": "%"}, {"measurement": "Rate of CMV Disease or End of Treatment CMV Infection", "setting": "40 mg QW, aGVHD randomization strata: negative", "result": 52.2, "unit": "%"}, {"measurement": "Difference (HDP-CDV minus placebo) in infection rate", "setting": "40 mg QW, aGVHD strata: negative", "result": 20.1, "unit": "%"}, {"measurement": "Discontinuation: Emergence of CMV disease", "setting": "40 mg QW", "result": "3 Subject n (%) and 3 (12.0%) Subject n (%)"}, {"measurement": "Discontinuation: Initiation of alternate CMV therapy", "setting": "40 mg QW", "result": "8 (32.0%) Subject n (%)"}, {"measurement": "Difference (HDP-CDV minus placebo) in rate of CMV DNAemia ≧1000 copies/mL", "setting": "40 mg QW, mITT", "result": "−2.4", "unit": "%"}, {"measurement": "Difference (HDP-CDV minus placebo) in rate of CMV disease or end of treatment CMV infection", "setting": "40 mg QW, mITT", "result": 14.7, "unit": "%"}, {"measurement": "Subjects Receiving Antiviral Therapy and/or had CMV disease", "setting": "40 mg QW, mITT", "result": "11 (44.0%) subjects (%)"}, {"measurement": "Subjects without a CMV event", "setting": "40 mg QW, mITT", "result": "14 (56.0%) subjects (%)"}, {"measurement": "Time to Antiviral Therapy, Median", "setting": "40 mg QW, mITT", "result": 29.0, "unit": "days"}, {"measurement": "Rate of CMV Disease or End of Treatment CMV Infection (≧200 copies/ml)", "setting": "40 mg QW, mITT, missing=infection", "result": 52, "unit": "%"}, {"measurement": "Rate of CMV DNAemia ≧1000 copies/mL during the treatment period", "setting": "40 mg QW, mITT, post hoc", "result": 40.0, "unit": "%"}, {"measurement": "Time to Antiviral Therapy, Mean", "setting": "40 mg QW, mITT, censored values not included", "result": 27.1, "unit": "days"}, {"measurement": "Subjects Who Had CMV-related Event (CMV disease, CMV DNAemia ≧1,000 c/mL or initiation of anti-CMV treatment)", "setting": "[2]", "result": "5 (27.8%) subjects (%)"}, {"measurement": "Subjects without a CMV-related event", "setting": "[2]", "result": "13 (72.2%) subjects (%)"}, {"measurement": "Developed CMV DNAemia (≧100 copies/mL) during the treatment period", "setting": "40 mg QW, plasma CMV DNA negative at baseline, mITT", "result": "10 (52.6%) N(%)"}, {"measurement": "Median Survival Time to CMV DNAemia (Kaplan-Meier)", "setting": "[3]", "result": 51.0, "unit": "days"}, {"measurement": "Time to CMV DNAemia (≧100 copies/mL), Median", "setting": "[3]", "result": 14.5, "unit": "days"}, {"measurement": "Time to CMV DNAemia (≧100 copies/mL), Mean", "setting": "40 mg QW, treatment period, CMV DNA negative at baseline, censored values not included", "result": 17.8, "unit": "days"}, {"measurement": "Median Survival Time to CMV DNAemia (Kaplan-Meier)", "setting": "40 mg QW, whole study period", "result": 51.0, "unit": "days"}, {"measurement": "Number of Subjects who had CMV DNAemia (≧100 copies/mL) by the end of study", "setting": "[4]", "result": 11}, {"measurement": "Time to CMV DNAemia (≧100 copies/mL), Mean", "setting": "[4]", "result": 24.5, "unit": "days"}, {"measurement": "Time to CMV DNAemia (≧100 copies/mL), Median", "setting": "[4]", "result": 15.0, "unit": "days"}, {"measurement": "% CMV Event Rate, primary: CMV DNAemia >200 copies/mL at end of treatment OR CMV disease during treatment", "setting": "100 mg BIW (N = 41), CMV modified strata: negative", "result": "2 (4.9%) subjects (%)"}, {"measurement": "% CMV Event Rate, primary: CMV DNAemia >200 copies/mL at end of treatment OR CMV disease during treatment", "setting": "100 mg BIW (N = 46), aGVHD strata: negative", "result": "4 (8.7%) subjects (%)"}, {"measurement": "% CMV Event Rate, primary: CMV DNAemia >200 copies/mL at end of treatment OR CMV disease during treatment", "setting": "100 mg BIW (N = 50), mITT", "result": "5 (10.0)%"}, {"measurement": "CMV events (disease at any time or >200 copies at end of treatment)", "setting": "100 mg BIW, CMV modified positive stratum (3 of 9)", "result": 33, "unit": "%"}, {"measurement": "Difference (HDP-CDV minus placebo) in infection rate", "setting": "[5]", "result": "−24.9", "unit": "%"}, {"measurement": "Difference (HDP-CDV minus placebo) in rate of CMV DNAemia ≧1,000 copies/ml", "setting": "[5]", "result": "−31.9", "unit": "%"}, {"measurement": "Rate of CMV DNAemia ≧1,000 copies/ml during the treatment period", "setting": "[5]", "result": 0, "unit": "%"}, {"measurement": "Rate of CMV Disease or End of Treatment CMV Infection", "setting": "[5]", "result": "4.9% and 5%"}, {"measurement": "Difference (HDP-CDV minus placebo) in rate of CMV DNAemia ≧1,000 copies/mL", "setting": "100 mg BIW", "result": "−38.9", "unit": "%"}, {"measurement": "Rate of CMV DNAemia ≧1,000 copies/mL during the treatment period", "setting": "100 mg BIW", "result": 44.4, "unit": "%"}, {"measurement": "Rate of CMV Disease or End of Treatment CMV Infection", "setting": "100 mg BIW, aGVHD randomization strata: negative", "result": "9% and 8.7%"}, {"measurement": "Difference (HDP-CDV minus placebo) in infection rate", "setting": "100 mg BIW, aGVHD strata: negative", "result": "−23.4", "unit": "%"}, {"measurement": "Discontinuation: Emergence of CMV disease", "setting": "100 mg BIW", "result": "1 Subject n (%) and 1 (2.0%) Subject n (%)"}, {"measurement": "Discontinuation: Initiation of alternate CMV therapy", "setting": "100 mg BIW", "result": "6 (12.0%) Subject n (%)"}, {"measurement": "Difference (HDP-CDV minus placebo) in rate of CMV DNAemia ≧1000 copies/mL", "setting": "100 mg BIW, mITT", "result": "−34.4", "unit": "%"}, {"measurement": "Difference (HDP-CDV minus placebo) in rate of CMV disease or end of treatment CMV infection", "setting": "100 mg BIW, mITT", "result": "−27.3", "unit": "%"}]}
